The term ILS denotes how much longer treated animals lived than controls.

Experiment [1] deals with Mus musculus. Put plainly: Average weight of the mouse after treating with 40 mg/kg dose for 1 day. The format is functional. The arrangement: unit not given here.
Experiment [2] has as its system Mus musculus. Briefly: Average weight of the mouse after treating with 20 mg/kg dose for 1 day. The format is functional. Set-up: unit not given here.
Experiment [3] relates to Mus musculus. Put plainly: Average weight of the mouse after treating with 20 mg/kg dose for 7 days. The format is functional. The arrangement: unit not given beside the values.
The test system of experiment [4] is L1210. Briefly: In vivo antitumor activity against L1210 leukemia in 5 mice measured as Increased life span at 20 mg/kg. The format is functional. As to conditions: Mus musculus.
Experiment [5] concerns L1210. Put plainly: In vivo antitumor activity against L1210 leukemia in 5 mice measured as median survival range at 10 mg/kg; Value ranges from(13-20). The format is functional, Mus musculus.
In experiment [6] the test system is L1210. Briefly: In vivo antitumor activity against L1210 leukemia in 18 mice measured as T/C values; T/C = 18/9. It counts as functional, Mus musculus.
The subject of experiment [7] is L1210. Briefly: In vivo antitumor activity against L1210 leukemia in 24 mice measured as T/C value; T/C = 24/9. The format is functional, Mus musculus.
Experiment [8] relates to L1210. Put plainly: In vivo antitumor activity against L1210 leukemia in 5 mice measured as median survival range at 20 mg/kg; Value ranges from(13-22). The format is functional, Mus musculus.
Experiment [9] relates to L1210. Briefly: In vivo antitumor activity against L1210 leukemia in 5 mice measured as median survival range at 40 mg/kg; Value ranges from(22-27). It counts as functional, Mus musculus.
Experiment [10] concerns Mus musculus. Briefly: Average weight of the mouse after treating with 10 mg/kg dose for 7 days. It counts as functional.
Experiment [11] relates to L1210. Briefly: In vivo antitumor activity against L1210 leukemia in 5 mice measured as Increased life span at 40 mg/kg. The format is functional. As to conditions: Mus musculus.
For experiment [12], the system named is L1210. Briefly: In vivo anti tumor activity against L1210 leukemia in 5 mice measured as Increased life span at 10 mg/kg. It counts as functional. Conditions: Mus musculus.
Experiment [13] concerns L1210. Briefly: In vivo antitumor activity against L1210 leukemia in 17 mice measured as T/C values; T/C = 17/9. It counts as functional, Mus musculus.
For experiment [14], the system named is Mus musculus. Put plainly: Average weight of the mouse after treating with 10 mg/kg dose for 1 day. The format is functional. Set-up: unit not given here.
Experiment [15] concerns Mus musculus. Put plainly: Average weight of the mouse after treating with 40 mg/kg dose for 7 days. The format is functional. The arrangement: unit not given beside the values.
The subject of experiment [16] is Mus musculus. Put plainly: Average weight of the mouse after treating with 15 mg/kg dose for 7 days. The format is functional.
For experiment [17], the system named is Mus musculus. Briefly: Average weight of the mouse after treating with 30 mg/kg dose for 7 days. It counts as functional.
Experiment [18] deals with Mus musculus. Briefly: Average weight of the mouse after treating with 60 mg/kg dose for 7 days. The format is functional.
For experiment [19], the system named is L1210. Briefly: In vivo antitumor activity against L1210 leukemia in 17 mice measured as T/C values(days); T/C = 17/9. It counts as functional, Mus musculus.
The subject of experiment [20] is L1210. Put plainly: In vivo antitumor activity against L1210 leukemia in 23 mice measured as Increased life span. It counts as functional, Mus musculus.
In experiment [21] the test system is L1210. Briefly: In vivo anti tumor activity against L1210 leukemia in 19 mice measured as median survival range at 60 mg/kg; Value ranges from(9-28). The format is functional, Mus musculus.
The subject of experiment [22] is L1210. Briefly: In vivo antitumor activity against L1210 leukemia in 19 mice measured as median survival range at 15 mg/kg; Value ranges from(13-22). It counts as functional, Mus musculus.
In experiment [23] the test system is L1210. Briefly: (§1) In vivo antitumor activity against L1210 leukemia in 19 mice measured as Increased life span. The format is functional, Mus musculus.
For experiment [24], the system named is L1210. The experiment is described as §1. It counts as functional, Mus musculus. This is another data set of the same source.
In experiment [25] the test system is L1210. Put plainly: In vivo antitumor activity against L1210 leukemia in 18 mice measured as T/C values(days); T/C = 18/9. It counts as functional, Mus musculus.
Experiment [26] relates to L1210. Put plainly: In vivo anti tumor activity against L1210 leukemia in 23 mice measured as median survival range at 30 mg/kg; Value ranges from(14-23). It counts as functional, Mus musculus.
The test system of experiment [27] is L1210. Briefly: In vivo antitumor activity against L1210 leukemia in 16 mice measured as T/C values(days); T/C = 16/9. It counts as functional, Mus musculus.
In experiment [28] the test system is Mus musculus. Put plainly: Average weight change in mouse after treating with 20 mg/kg dose for 7 days. It counts as functional. The arrangement: unit not given beside the values.
The subject of experiment [29] is L1210. Put plainly: In vivo antitumor activity against L1210 leukemia in 5 mice measured as T/C values(days); T/C = 17/9. The format is functional, Mus musculus.
Experiment [30] relates to L1210. Put plainly: In vivo antitumor activity against L1210 leukemia in 14 mice measured as T/C values(days); T/C = 14/9. It counts as functional, Mus musculus.
For experiment [31], the system named is L1210. Briefly: In vivo antitumor activity against L1210 leukemia in 5 mice measured as median survival range at 40 mg/kg; Value ranges from (11-21). It counts as functional, Mus musculus.
For experiment [32], the system named is Mus musculus. Briefly: Average weight change in mouse after treating with 40 mg/kg dose for 7 days. It counts as functional.
Experiment [33] has as its system Mus musculus. Briefly: Average weight change in mouse after treating with 10 mg/kg dose for 7 days. The format is functional.
The test system of experiment [34] is L1210. Put plainly: In vivo antitumor activity against L1210 leukemia in 5 mice measured as median survival range at 10 mg/kg; Value ranges from (11-13). The format is functional, Mus musculus.
Experiment [35] deals with L1210. Put plainly: In vivo antitumor activity against L1210 leukemia in 12 mice measured as T/C values; T/C = 12/9. The format is functional, Mus musculus.
Experiment [36] concerns L1210. Briefly: In vivo antitumor activity against L1210 leukemia in 5 mice measured as median survival range at 20 mg/kg; Value ranges from (12-16). It counts as functional, Mus musculus.

With `CN(Cc1cnc2nc(N)nc(N)c2n1)c1ccc(C(=O)NC(CCC(=O)OCc2cc3c(cc2Cl)OCO3)C(=O)OCc2cc3c(cc2Cl)OCO3)cc1` (configuration not stated), the Average weight is on record as 21.4 with Mus musculus [1], 22.2 in the experiment with Mus musculus [2] and 22.5 in the experiment with Mus musculus [14]. The values for the Weight change with Mus musculus [3], in the experiment on Mus musculus [10] and in the experiment on Mus musculus [15] were 1, 2.1 and 0.2, respectively. The molecule further showed an ILS at 20 mg/kg with L1210 [4] of 100%. Also, the Range in the experiment with L1210 [5] was 20; with L1210 [8], 22; with L1210 [9], 27. Further, the T/C in the experiment on L1210 [6] is listed as 9; in the experiment on L1210 [7] it was 9; in the experiment on L1210 [13], 11. Besides, the ILS at 40 mg/kg in the experiment with L1210 [11] was 167%. In the experiment on L1210 [12], the ILS at 10 mg/kg was found to be 88%.

As to `CN(Cc1cnc2nc(N)nc(N)c2n1)c1ccc(C(=O)N[C@@H](CCC(=O)O)C(=O)O)cc1` [METHOTREXATE], the figures for the Weight change in the experiment on Mus musculus [16], in the experiment with Mus musculus [17] and with Mus musculus [18] were 2.1, 0.6 and 1.3, respectively. For the same molecule, the T/C with L1210 [19], in the experiment with L1210 [25] and in the experiment on L1210 [27] was 9 in each case. Besides, the results for the increase in lifespan (ILS) in the experiment on L1210 [20], in the experiment on L1210 [23] and with L1210 [24] were 88%, 100% and 77%, respectively. Besides, the Range is reported as 28 in the experiment with L1210 [21], 22 with L1210 [22] and 23 with L1210 [26].

Regarding `CC(C)CCOC(=O)CCC(NC(=O)c1ccc(N(C)Cc2cnc3nc(N)nc(N)c3n2)cc1)C(=O)OCCC(C)C` (configuration not stated), the Weight change with Mus musculus [28] is recorded as 1.9; in the experiment with Mus musculus [32] it was 1; in the experiment on Mus musculus [33], 3. Also, the Average weight came to 23.2 in the experiment on Mus musculus [1], 23.7 with Mus musculus [2] and 21.9 in the experiment with Mus musculus [14]. Besides, the T/C in the experiment with L1210 [29] stood at 17; with L1210 [30] it was 14; with L1210 [35], 12. For the same molecule, the ILS at 20 mg/kg with L1210 [4] turned out to be 33%. In addition, the values for the Range in the experiment with L1210 [31], with L1210 [34] and with L1210 [36] were 21, 13 and 16, respectively. In the experiment with L1210 [11], this molecule registered an ILS at 40 mg/kg of 88%. Further, the increase in lifespan (ILS) at 10 mg/kg with L1210 [12] was 33%.

(Values after ChEMBL document CHEMBL1122370 (J Med Chem, 1983).)
